Source: patent US20150148311A1, “NON-SYSTEMIC TGR5 AGONISTS” (Ardelyx, Inc., priority 2011, published 2015)

Experiments:
[1] = molecular target: T1, endogenously expressed TGR5 in NCI H716 (Homo sapiens, UniProt Q8TDU6); assay: Cell-based TGR5 assay, NCI-H716 cells endogenously expressing human TGR5, cAMP by HTRF; conditions: 30 min at 37 C, 22 nM to 50 μM, read-out: pEC50 endogenously expressed TGR5 in NCI H716 (converted)
T1 construct: human caecum carcinoma cell line NCI-H716 which endogenously expresses human TGR5; endogenous in cells; host or cells: NCI-H716
T1 sequence (Q8TDU6 1-330): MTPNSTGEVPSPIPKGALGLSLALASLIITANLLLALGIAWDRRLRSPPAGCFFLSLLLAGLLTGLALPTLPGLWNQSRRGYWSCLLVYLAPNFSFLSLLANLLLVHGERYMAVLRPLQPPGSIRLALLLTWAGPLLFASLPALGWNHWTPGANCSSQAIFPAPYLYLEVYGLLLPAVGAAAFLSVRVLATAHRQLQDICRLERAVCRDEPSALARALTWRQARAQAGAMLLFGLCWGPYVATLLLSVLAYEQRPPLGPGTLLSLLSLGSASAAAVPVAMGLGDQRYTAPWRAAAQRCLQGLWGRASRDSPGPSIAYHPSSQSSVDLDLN
Method: Two primary cell based screens were performed. The first utilized HEK293 cells stably transfected to heterologously express human TGR5. The second screen used the human caecum carcinoma cell line NCI-H716 which endogenously expresses human TGR5. In both assays, cells are treated with candidate TGR5 activators and assessed for the increased intercellular levels of cAMP. […]
TGR5-mediated cAMP generation was measured using a homogeneous time resolved fluorescence (HTRF) detection method (Cisbio). Test compounds were dissolved in DMSO to a final concentration of 10 mM. Serial 3-fold dilutions of the stock solution were made in DMSO, and these solutions were diluted 100-fold into Hanks Balanced Salt Solution supplemented with 10 mM HEPES pH 7.4 and 0.5 mM isobutyl methylxanthine (IBMX). Prior to assay, culture medium was replaced with fresh medium, and test compounds diluted in HBSS/HEPES/IBMX were added to the cells and incubated at 37° C. for 30 minutes.
Following incubation with test compounds, cAMP was detected through the successive addition of cAMP labeled with the modified allophyocyanin dye d2 (cAMP-d2) and cryptate-labeled anti-cAMP in lysis buffer, and reading HTRF per the manufacturer's instructions. A standard curve was used to convert the raw HTRF data into [cAMP].

human TGR5 = molecular target: T2, human TGR5 (Homo sapiens, UniProt Q8TDU6); assay: Cell-based TGR5 assay, HEK293 cells stably expressing human TGR5, cAMP by HTRF; conditions: HEK293 cells stably expressing human TGR5, 30 min at 37 C, 0.05 nM to 10 μM; for EC50: read-out: pEC50 Human TGR5 (converted)
T2 construct: expressed in transfected cells
T2 sequence (Q8TDU6 1-330): T1 sequence (Q8TDU6 1-330)
Outline: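 cAMP HTRF read-out, converted to concentration via standard curve, after a 30 min, 37 °C compound exposure in HBSS with 10 mM HEPES pH 7.4 and 0.5 mM IBMX, compounds serially diluted 3-fold from 10 mM DMSO stock then 100-fold. Cells: stable human TGR5 HEK293, or NCI-H716 expressing TGR5 endogenously.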

Structure (SMILES) | EC50 [1] [nM] | EC50 (human TGR5) [nM] | pEC50 Human TGR5 (human TGR5)
CC(=O)N1CC(OCc2cc(Cl)ccc2Cl)(C(=O)N2CCN(C3CC3)c3ccccc32)C1 [Example 54, 1-(3-(4-cyclopropyl-1,2,3,4-tetrahydroquinoxaline-1-carbonyl)-3-(2,5-dichlorobenzyloxyl)azetidin-1-yl)ethanone] | 1260 to 50100 | 126 to 1000 | –
Cc1cccc(CC2CCCN2C(=O)N2CCN(C3CC3)c3ccccc32)c1 (stereo not drawn) [Example 58] | 1260 to 50100 | 1260 to 50100 | –
CN(C[C@H](O)[C@@H](O)[C@@H](O)[C@H](O)CO)C(=O)CCc1ccc(Cl)c(CNC2(C(=O)N3CCN(C4CC4)c4ccccc43)CC2)c1 [Example 71, 3-(4-chloro-3-(((1-(4-cyclopropyl-1,2,3,4-tetrahydroquinoxaline-1-carbonyl)cyclopropyl)amino)methyl)phenyl)-N-methyl-N-((2S,3R,4S,5R)-2,3,4,5,6-pentahydroxyhexyl)propanamide] | 126 to 1000 | 126 to 1000 | –
CC(OC1(C(=O)N2CCN(C3CC3)c3ccccc32)CC1)c1cc(Cl)ccc1Cl (stereo not drawn) [Example 94, (4-cyclopropyl-3,4-dihydroquinoxalin-1(2H)-yl)(1-(1-(2,5-dichlorophenyl)ethoxy)cyclopropyl)methanone] | 1260 to 50100 | 1260 to 50100 | –
O=C(N1CCN(C2CC2)c2ccccc21)C1(OCc2cc(Cl)ccc2Cl)COC1 [Example 179, (4-cyclopropyl-3,4-dihydroquinoxalin-1(2H)-yl)(3-(2,5-dichlorobenzyloxyl)oxetan-3-yl)methanone] | 126 to 1000 | < 100 | –
CN(C[C@H](O)[C@@H](O)[C@H](O)[C@H](O)CO)C(=O)NCCOc1cc(Cl)c(CNC2(C(=O)N3CCN(C4CC4)c4ccccc43)CC2)cc1Cl [Example 188] | 126 to 1000 | – | B (B is a pEC50 of 6-6.9)
O=C(N1CCN(C2CC2)c2ccccc21)C1(OCc2cc(Cl)ccc2Cl)CCC1 [Example 41, 1-cyclopropyl-4-([1-[(2,5-dichlorophenyl)methoxy]cyclobutyl]carbonyl)-1,2,3,4-tetrahydroquinoxaline] | 126 to 1000 | < 100 | –
CCN1CC(OCc2cc(Cl)ccc2Cl)(C(=O)N2CCN(C3CC3)c3ccccc32)C1 [Example 52, (4-cyclopropyl-3,4-dihydroquinoxalin-1(2H)-yl)(3-(2,5-dichlorobenzyloxy)-1-ethylazetidin-3-yl)methanone] | 1260 to 50100 | 126 to 1000 | –

The remaining lines, values ahead:

EC50 [1] [nM] | EC50 (human TGR5) [nM] | pEC50 Human TGR5 (human TGR5) | Structure (SMILES)
1260 to 50100 | 126 to 1000 | – | CN(C[C@H](O)[C@@H](O)[C@H](O)[C@H](O)CO)C(=O)NCCCc1ccc(Cl)c(CN2CSC[C@H]2C(=O)N2CCN(C3CC3)c3ccccc32)c1 [Example 217]
1260 to 50100 | 1260 to 50100 | – | O=C(N1CCN(C2CC2)c2ccccc21)C1(OCc2cc(Cl)cc(OC(F)(F)F)c2)CC1 [Example 248]
< 100 | < 100 | – | CN(C[C@H](O)[C@@H](O)[C@H](O)[C@H](O)CO)C(=O)CCCCc1cc(Cl)c(CNC2(C(=O)N3CCN(C4CC4)c4ccccc43)CC2)cc1Cl [Example 219]
126 to 1000 | < 100 | – | CN(C[C@H](O)[C@@H](O)[C@H](O)[C@H](O)CO)C(=O)CCCOc1cc(Cl)c(CN2CSC[C@H]2C(=O)N2CCN(C3CC3)c3ccccc32)cc1Cl [Example 189]
< 100 | < 100 | – | CN(C[C@H](O)[C@@H](O)[C@@H](O)[C@H](O)CO)C(=O)CCCCc1cc(Cl)c(CNC2(C(=O)N3CCN(C4CC4)c4ccccc43)CC2)cc1Cl [Example 220]
126 to 1000 | < 100 | – | O=C([C@@H]1SCCN1Cc1cc(Cl)ccc1C(F)(F)F)N1CCN(C2CC2)c2ccccc21 [Example 268]
1260 to 50100 | 126 to 1000 | – | CN(C[C@H](O)[C@@H](O)[C@H](O)[C@H](O)CO)C(=O)NCCCCc1ccc(Cl)c(CNC2(C(=O)N3CCN(C4CC4)c4ccccc43)CC2)c1 [Example 213]
